In brackets after ≈: the same amount, converted by molar mass. Where two headings read alike, the source gives them in different places.
Experiments:
[1] = system: Synechococcus sp. PCC 7942; test: Minimum inhibitory concentration of organic acids; assay type: cell-based; conditions: for MIC: Synechococcus; for Minimum inhibitory concentration: Table 3
Excerpt: (§1) One aspect of the increased tolerance to organic acids is an increase in the minimal inhibitory concentration (MIC) of a particular organic acid compared to a corresponding microorganism. MIC is the lowest concentration of an agent that will inhibit growth of a microorganism. An MIC can be determined by titrating the agent in the growth medium of the microorganism. The lowest concentration of the agent in which the microorganism is no longer able to grow is the MIC. Methods of culturing microorganisms and of detecting their growth are well known in the art and are not discussed in detail herein.
(§2) Because of this, the toxicity of organic acids generally increases with the hydrophobicity of the compound [35]. The minimum inhibitory concentrations (MIC) for PCC 7002, Synechococcus sp. PCC 7942, and Synechocystis sp. PCC 6803 were determined for acrylic acid, 3HP, and propionic acid at a pH of about 8 (Table 1). […] The low MIC for acrylic acid explains why cultures grown with DMSP become growth inhibited. Cultures with DMSP only show growth inhibition when the accumulating acrylic acid concentration reaches inhibitory concentrations.

[2] = system: Synechocystis sp. PCC 6803; test: Minimum inhibitory concentration of organic acids; assay type: cell-based; conditions: for MIC: Synechocystis; for Minimum inhibitory concentration: Table 3
Excerpt: as §1, §2
(§3) Homologous genes were identified in the cyanobacteria Synechocystis sp. PCC 6803 (s110542; SEQ ID NOS:3 and 4) and Synechococcus sp. PCC 7942 (SYNPCC7942—1342; SEQ ID NOS:5 and 6). […] When selecting for growth of Synechocystis sp. PCC 6803 on 50 μM acrylic acid, the mutation frequency was 2×10^−6.

[3] = system: Synechococcus sp. PCC 7002; test: Minimum inhibitory concentration of organic acids / growth inhibition; assay type: cell-based; conditions: for MIC: Synechococcus; for Minimum inhibitory concentration: Table 3
Excerpt: as §1
(§4) The minimum inhibitory concentrations (MIC) for PCC 7002, Synechococcus sp. PCC 7942, and Synechocystis sp. PCC 6803 were determined for acrylic acid, 3HP, and propionic acid at a pH of about 8 (Table 1).

PCC 6803 sll0542::KmR = test: Minimum inhibitory concentration, deletion strain; assay type: cell-based, Synechocystis sp. PCC 6803; conditions: Synechocystis; Table 3
Protocol: (§5) Deletion and complementation studies were performed in various Synechococcus spp. and Synechocystis spp. Replacement of the gene acsA in Synechococcus sp. […] An identical level of increase was observed when acsA was replaced with a 20 base-pair barcode sequence. This phenotype was complemented in an acsA deletion strain by expression of acsA under the native promoter in another locus on the chromosome (glpK).
as §3

PCC 7002 acsA::aadA = test: microbe, parasite or virus in culture; assay type: cell-based, Synechococcus sp. PCC 7002; conditions: for Increase in MIC on functional deletion of the acsA gene product: Synechococcus sp. PCC 7002, pH of about 8
Protocol: This hypothesis was tested by creating a knockout mutant of the acsA gene. This knockout was created by transforming wild type PCC 7002 with a DNA construct that would replace the acsA gene with an antibiotic resistance marker through homologous recombination. The resulting mutant, ΔacsA, was challenged with concentrations of acrylic acid, 3HP, and propionic acid above WT PCC 7002 MIC levels.
Deletion and complementation studies were performed in various Synechococcus spp. and Synechocystis spp. Replacement of the gene acsA in Synechococcus sp.

[4] = system: PCC 7002 acsA:BC glpK::acsA aadA; test: Minimum inhibitory concentration, acsA complementation strain; assay type: cell-based, Synechococcus sp. PCC 7002; conditions: Synechococcus, read-out: Minimum inhibitory concentration
Protocol: as §5

AcsA = test: Acyl-CoA ligase activity assay; assay type: biochemical, Synechococcus sp. PCC 7002; conditions: 2 mM organic acid, 500 nM AcsA, CoA consumed in 4 min relative to acetate
Protocol: Acyl-CoA ligase purification: Escherichia coli BL21 containing plasmid pET28b with acsA were grown in 50 mL of LB to an OD600 nm of 0.6 and induced with 1 mM IPTG. The induced culture was shaken at 37° C. for 3 hrs. The culture was centrifuged and the resulting cell pellet was frozen at −20° C. The cell pellet was processed with Novagen BugBuster Protein Extraction Reagent (Part No. 70584-3). The resulting soluble protein fraction was used for His-tag purification using Ni-NTA agarose beads (Qiagen) and Pierce 0.8-mL centrifugation columns (Part No. 89868). Washes were done with 50 mM NaH2PO4, 300 mM NaCl, and 30 mM imidizole pH 8.0. The his-tagged protein was eluted with 50 mM NaH2PO4, 300 mM NaCl, and 250 mM imidizole pH 8.0. The insoluble fraction from the protein extraction was washed twice with BugBuster reagent followed by incubation with 400 μL 8M urea, 100 mM Tris-HCl, and 100 mM β-mercaptoethanol pH 8.2 for 30 min. The resulting solution was centrifuged at 16,000×g and the supernatant was collected. Protein fractions were run on a SDS-PAGE gel. His-tag purified protein fractions used in the acyl-CoA ligase assay were concentrated and buffered exchanged using an Amicon Ultra-4 centrifugation column. The buffer used for enzyme storage contained 0.1M NaH2PO4, 1 mM EDTA, and 10% v/v glycerol.
Acyl-CoA ligase activity assay: Acyl-CoA ligase activity was determined by measuring the loss of free Coenzyme A (CoA) over time using Ellman's reagent. (Riddles P W, Blakeley R L, & Zerner B (1979) Ellman's reagent: 5,5′-dithiobis(2-nitrobenzoic acid)—a reexamination. Analytical Biochemistry 94(1):75-81.) The enzyme reaction contained 10 mM ATP, 8 mM MgCl2, 3 mM CoA, 0.1 M NaH2PO4, 1 mM EDTA, and 2 mM of the organic acid species. The concentration of AcsA in the reaction was 500 nM. Relative activity was determined by the amount of CoA consumed in 4 min relative to an acetate control.

PCC 7002 A^+ = test: Minimum inhibitory concentration, spontaneous acrylic acid-tolerant mutant; assay type: cell-based, Synechococcus sp. PCC 7002
Protocol: as §4

PCC 7002 acsA::BC = test: Minimum inhibitory concentration, acsA barcode replacement strain; assay type: cell-based, Synechococcus sp. PCC 7002; conditions: Synechococcus, read-out: Minimum inhibitory concentration
Protocol: as §5

[5] = system: PCC 7002 acsA::BC glpK::acsAW49L aadA; test: Minimum inhibitory concentration, acsAW49L complementation strain; assay type: cell-based, Synechococcus sp. PCC 7002; conditions: Synechococcus, read-out: Minimum inhibitory concentration
Protocol: as §5

[6] = cited from earlier work
[7] = SP.PCC7942, read-out: Minimum inhibitory concentration
[8] = SP.PCC6803, read-out: Minimum inhibitory concentration
[9] = SP.PCC7002, read-out: Minimum inhibitory concentration

What does the source list for `O=C(O)CCO` [3HP, 3-hydroxypropionic acid]?
MIC [1, 7]: 2000 µM (≈ 180 µg/mL); Minimum inhibitory concentration [1]: 2000 µM (≈ 180 µg/mL); MIC [2, 8]: > 35000 µM; MIC [3, 9]: 10000 µM (≈ 901 µg/mL); Minimum inhibitory concentration [3]: 10000 µM (≈ 901 µg/mL); MIC (PCC 6803 sll0542::KmR): < 50000 µM; Increase in MIC on functional deletion of the acsA gene product (PCC 7002 acsA::aadA): ≥ 26 fold; Concentration at which the ΔacsA mutant was able to grow without inhibition (PCC 7002 acsA::aadA; ΔacsA mutant): > 500 mM; MIC [4]: 15000 µM (≈ 1350 µg/mL); Acyl-CoA ligase activity of AcsA towards substrate (AcsA): has an activity

Which “Acyl-CoA ligase activity of AcsA towards substrate” value (AcsA) does the source give for `CC(=O)O` [acetate, reference compound] here?
The value was “has an activity”.

What does the source list for `CCC(=O)O` [propionic acid]?
MIC ([1]; SP.PCC7942, Table 1, pH of about 8, no increase in OD730, read-out: Minimum inhibitory concentration): 250 µM (≈ 18.5 µg/mL); Minimum inhibitory concentration [1]: 250 µM (≈ 18.5 µg/mL); MIC ([2]; SP.PCC6803, Table 1, pH of about 8, no increase in OD730, read-out: Minimum inhibitory concentration): 250 µM (≈ 18.5 µg/mL); Minimum inhibitory concentration [2]: 250 µM (≈ 18.5 µg/mL); MIC ([3]; SP.PCC7002, Table 1, pH of about 8, no increase in OD730, read-out: Minimum inhibitory concentration): 4000 µM (≈ 296 µg/mL); Minimum inhibitory concentration [3]: 4000 µM (≈ 296 µg/mL); Increase in MIC on functional deletion of the acsA gene product (PCC 7002 acsA::aadA): ≥ 100 fold; Acyl-CoA ligase activity of AcsA towards substrate (AcsA): has an activity

Which results are given for `C=CC(=O)O` [acrylic acid]?
MIC [1, 7]: 3 µM (≈ 0.216 µg/mL); Minimum inhibitory concentration [1]: 3 µM (≈ 0.216 µg/mL); MIC [2, 8]: 50 µM (≈ 3.6 µg/mL); Minimum inhibitory concentration [2]: 50 µM (≈ 3.6 µg/mL); MIC [3, 9]: 25 µM (≈ 1.8 µg/mL); Minimum inhibitory concentration [3]: 25 µM (≈ 1.8 µg/mL); Inhibitory concentration ([3]; growth by OD730): less than 5 mM; pH dependence of toxicity ([3]; toxicity increasing with decreasing pH): pH dependent; Increase in tolerance over WT PCC 7002 MIC values (PCC 7002 A^+; PCC 7002 A^+ vs WT): about 280 fold; MIC (PCC 7002 A^+; Synechococcus, Table 1, strain isolated from agar plate containing 5 mM acrylic acid): 7000 µM (≈ 504 µg/mL); MIC (PCC 6803 sll0542::KmR): 70000 µM (≈ 5040 µg/mL); Increase in MIC on functional deletion of the acsA gene product (PCC 7002 acsA::aadA): ≥ 2.800 fold; MIC (PCC 7002 acsA::aadA; Synechococcus, read-out: Minimum inhibitory concentration): 70000 µM; MIC (PCC 7002 acsA::BC): 70000 µM (≈ 5040 µg/mL); MIC [4]: 15 µM (≈ 1.08 µg/mL); MIC [5]: 7000 µM (≈ 504 µg/mL); Acyl-CoA ligase activity of AcsA towards substrate (AcsA): has an activity; pKa [6]: 4.35
